Q: For `Cc1cc(C(=O)N2Cc3ccc(C(=O)O)n3Cc3ccccc32)ccc1-c1ccccc1C(F)(F)F`, which melting point is on record?
A: Its melting point is 233 to 235 °C.

Q: With `COc1cc(-c2ccccc2C)ccc1C(=O)N1Cc2ccc(C(=O)O)n2Cc2ccccc21` as the molecule, how does the melting point read?
A: Its melting point is 201 to 204 °C.

Q: For `COc1cc(-c2ccccc2F)c(Cl)cc1C(=O)N1Cc2ccc(C(=O)O)n2Cc2ccccc21`, which melting point is on record?
A: Its melting point is 207 to 208 °C.
